Assays:
[1] = test system: A549 xenograft tumor; assay: A549-cell-induced lung cancer xenograft model in nude mice; conditions: for Average tumor weight: compared with the other groups; for Cytotoxic effect on the tumor (H&E staining): excised tumors; for % tumor growth inhibition: intraperitoneally once a week, 21 days
Protocol: The animal experiments were performed as per the guidelines of the Committee for the Purpose of Control and Supervision of Experiments on Animals (CPCSEA) with the approval of the Institutional Animal Ethics Committee (# IAEC/19/14). Four–five-week-old male athymic nude mice were procured from Vivo Bio Tech Ltd., Hyderabad, India. Animals were kept in an individually ventilated caging (IVC) system in a pathogen-free environment with standard conditions of temperature: 22 ± 1 °C, humidity: 50 ± 10%, and a 12 h light/dark cycle maintained in the National Toxicology Center (NTC) in the National Institute of Pharmaceutical Education and Research (NIPER), Mohali. Throughout the study, animals were fed with a standard rodent chow diet and water ad libitum.
Xenograft, the nude mice model, was developed by injecting A549 (1 × 10 ^6 cells, suspended in Matrigel™) subcutaneously into the right flank of each mouse. Tumor-bearing mice were randomly divided into four groups with seven animals per group after attaining an anticipated tumor volume of >80 mm^3. […] Treatment was given intraperitoneally once a week for a period of 21 days. Tumor volume and body weight were measured weekly during the study. Vernier caliper was used to measure the size of A549-cell-induced tumors weekly, starting from two weeks after inoculation.
Tumors were surgically removed from animals, sliced, and fixed in 10% v/v formal saline. For the histological study, the sliced tumors were processed and embedded in paraffin; sections of 5 µm were mounted on poly-L-lysine-coated glass slides. Sections were then stained with hematoxylin & eosin (H&E) to observe the structural alterations as described.

[2] = test system: Twist, Zeb1, and Hif-1α gene expression; assay: qPCR analysis of Twist, Zeb1 and Hif-1α in tumor tissue from treated mice; format: in vivo, nude mice; conditions: vs untreated mice
[3] = test system: PI3K/AKT pathway (AKT, P-AKT, PI3K, PTEN); assay: Western blot (immunoblotting) of tumor tissue from A549 xenograft mice; format: in vivo, nude mice; conditions: for PTEN protein level in tumors: gefitinib 30 mg/kg, 6b both doses, vs control untreated mice
Protocol: Tissue that had been kept at −80 °C was removed and placed on ice for 5 min. A total of 20 mg of tissue was diced and placed in a 1.5 mL microcentrifuge tube kept on ice. The tissue was lysed to extract the proteins using RIPA lysis buffer with a cocktail (IX) of phosphatase and protease inhibitors, followed by sonication for 30 min. After that, the mixture was centrifuged, and the supernatant was collected for protein estimation using the Bradford assay. Thereafter, immunoblotting was performed using SDS-PAGE for the separation and resolving of individual proteins by their molecular weights. The proteins were further transferred to nitrocellulose membranes, and blocking was performed in 3% powdered milk solution. Further, the membrane was washed using TBST buffer and was incubated in primary antibody (CST) for 3 h. After incubation, the membrane was washed in TBST and re-incubated for 1h in secondary antibody. The immune complex was detected using ChemiDoc^TM (BioRad) after washing the membrane with TBST [46].

[4] = In vitro microsomal stability, mouse liver microsomes
Protocol: (§1) Compounds were incubated at a final concentration of 1 µM with human (HLM) and mouse (MLM) at 0.5 mg/mL and NADPH (1 mM) in 100 mM phosphate buffer (pH 7.4) at 37 °C. The reactions were terminated at 0 and 30 min by the addition of cold acetonitrile containing propranolol (50 ng/mL) as an internal standard.

[5] = test system: EGFR; parameters: method as in PMID 25342981, PMID 27121209; conditions: earlier report of the authors; read-out: IC50 (EGFR inhibition); cited from earlier work
[6] = test system: H1975 lung cancer cells with mutant EGFR (L858R/T790M); conditions: gefitinib-resistant H1975, EGFR L858R/T790M; earlier report of the authors; read-out: IC50 (anti-proliferative, H1975 cells); cited from earlier work
[7] = In vitro microsomal stability, human liver microsomes; format: in vitro ADME; conditions: for microsomal CLint at 1 µM / half-life at 1 µM / remaining at 0.5 h, 1 µM: human, liver microsomes, 0.5 mg/mL microsomes; for microsomal CLint at 1 µM / half-life at 1 µM: pH 7.4, NADPH; for microsomal CLint at 1 µM: read-out: CLint HLM; for half-life at 1 µM: read-out: t½ HLM; for remaining at 0.5 h, 1 µM: NADPH 1 mM, pH 7.4, 37 °C, read-out: % Remaining after 30 min HLM
Protocol: as §1

[8] = in vitro; conditions: mouse, microsomes, pH 7.4
Protocol: as §1

[9] = mouse, liver microsomes, pH 7.4

| Compound | Kaplan–Meier survival ([1]; 30 mg/kg, i.p.) | Average tumor weight ([1]; 30 mg/kg, i.p.) | Cytotoxic effect on the tumor (H&E staining) [1] | Expression of the Hif-1α gene in tumors [2] | PTEN protein level in tumors [3] | microsomal CLint at 1 µM [7] [µL/min/mg] | half-life at 1 µM [7] [h] | remaining at 0.5 h, 1 µM [7] [%] | also measured |
| --- | --- | --- | --- | --- | --- | --- | --- | --- | --- |
| COc1cc2ncnc(Nc3ccc(F)c(Cl)c3)c2cc1OCCCN1CCOCC1 [gefitinib, reference compound] | improved the survival of the mice | lower | marked cytotoxic damage | decreased | increased |  |  |  | Effect on tumor volume / size ([1]; mouse, in vivo): suppression of tumor volume to some extent |
| COc1cc(C=Nc2c(C#N)nc3c(-c4cc(OC)c(OC)c(OC)c4)nc4ccccc4n23)cc(OC)c1OC [6b, 1-((3,4,5-Trimethoxybenzylidene)amino)-4-(3,4,5-trimethoxyphenyl)imidazo[1,2-a]quinoxaline-2-carbonitrile] | improved the survival of the mice | lower | marked cytotoxic damage | decreased | increased | 80 | 0.287 | 29.9 | Stability in mouse liver microsomes (in words) [4]: good stability; half-life at 1 µM [4, 9]: 0.602 h; microsomal CLint at 1 µM [4, 9]: 38 µL/min/mg; remaining at 0.5 h, 1 µM [4, 9]: 56.2%; % tumor growth inhibition ([1]; 10 mg/kg (LD)): 16%; Effect on tumor volume / size ([1]; 30 mg/kg, i.p., vs tumor control): significantly decreased the size of the tumors; % tumor growth inhibition ([1]; 30 mg/kg): 33%; Expression of EMT-regulating genes Twist and Zeb1 in tumors [2]: decreased; IC50 [5]: 0.211 µM; IC50 [6]: 3.65 µM; Stability in human liver microsomes (in words) [7]: good stability; AKT, P-AKT and PI3K protein level in tumor masses ([3]; LD (10 mg/kg) and HD (30 mg/kg), vs untreated mice): decreased |
| NC(=O)N1c2ccccc2C=Cc2ccccc21 [Carbamazepine, reference compound] |  |  |  |  |  | 3 | 7.97 | 95.7 | half-life at 1 µM [8]: 2.17 h; microsomal CLint at 1 µM [8]: 11 µL/min/mg; remaining at 0.5 h, 1 µM [8]: 85.2% |

Reference: article PMC9457798, “In Vivo Anticancer Evaluation of 6b, a Non-Covalent Imidazo[1,2-a]quinoxaline-Based Epidermal Growth Factor Receptor Inhibitor against Human Xenograft Tumor in Nude Mice” (Molecules, 2022)
